Experiments:
Type in all cases: in vivo
[1] = system: sugar cane; assay: Phytotoxicity on sugar cane, spray from upper side of pot, sugar cane at 4 to 5 leaves (Example 3); conditions: 70 g (active ingredient)/ha, one week after treatment, scale 0 to 100
Description: A sugar cane, a foliage of which had grown to about 4 to 5 leaves, was selected, and the length of the stem cutting was adjusted to be 8 cm or 25 cm. The 8 cm stem cutting had one node, and the 25 cm stem cutting had two nodes. A soil was packed into a 32 cm×25 cm×11 cm plastic pot, and seeds of Amaranthus retroflexus were seeded thereon. […] On the date when the stem cutting was planted, and after planting of the stem cutting, a water-diluted liquid of saflufenacil (140 ppm) was uniformly sprayed with a sprayer from an upper side of the pot at an amount described in Table 3. The water-diluted liquid of saflufenacil was prepared by dissolving a predetermined amount of saflufenacil in acetone containing 2% (w/v) Tween 20, and diluting this solution with water so that the acetone concentration became 10% by volume. Thereafter, the pot for a test was placed in a greenhouse. One week after treatment with saflufenacil, phytotoxicity on sugar cane was determined and, four weeks after treatment with saflufenacil, the herbicidal activity against Amaranthus retroflexus was determined.

[2] = system: sugar cane; assay: Phytotoxicity on sugar cane, spray from upper side of pot, sugar cane at 4 to 5 leaves (Example 2); conditions: 125 g (active ingredient)/ha, one week after treatment, scale 0 to 100
Description: (§1) A sugar cane, a foliage of which had grown to about 4 to 5 leaves, was selected, and the length of the stem cutting was adjusted to be 8 cm, 15 cm or 25 cm. The 8 cm or 15 cm stem cutting had one node, and the 25 cm stem cutting had two nodes. A soil was packed into a 32 cm×25 cm×11 cm plastic pot, and seeds of Amaranthus retroflexus were seeded thereon. […] On the date when the stem cutting was planted, and after planting of the stem cutting, a water-diluted liquid of a flumioxazin water dispersible granule (water dispersible granule containing 51% flumioxazin, trade name: Valor SX, manufactured by Valent USA Corporation) (250 ppm) was uniformly sprayed with a sprayer from an upper side of the pot at an amount described in Table 2. Thereafter, the pot for a test was placed in a greenhouse. One week after treatment with flumioxazin, phytotoxicity on sugar cane was determined and, four weeks after treatment with flumioxazin, the herbicidal activity against Amaranthus retroflexus was determined.

[3] = system: Amaranthus retroflexus; assay: Herbicidal activity, spray from upper side of pot, sugar cane at 4 to 5 leaves (Example 2); conditions: 125 g (active ingredient)/ha, four weeks after treatment, scale 0 to 100
Description: as §1

[4] = system: sugar cane; assay: Phytotoxicity on sugar cane, soil surface spray on day of planting (Example 1); conditions: four weeks after treatment, scale 0 to 100
Description: The stem cutting from which a bud had grown to about 1 cm was selected, and the length of the stem cutting was adjusted to be 3 cm, 15 cm or 25 cm. The stem cutting of 3 cm or 15 cm had only one node, and the stem cutting of 25 cm had two nodes. A soil was packed into a 32 cm×25 cm×11 cm plastic pot, and seeds of Amaranthus retroflexus were seeded thereon. […] On the date when the stem cutting was planted, and after planting of the stem cutting, a water-diluted liquid of a flumioxazin water dispersible granule (water dispersible granule containing 51% floumioxazin, trade name: Valor SX, manufactured by Valent USA Corporation) (100 ppm or 250 ppm) was uniformly sprayed on the soil surface with a sprayer at an amount described in Table 1. Thereafter, the pot for a test was placed in a greenhouse. Four weeks after treatment with flumioxazin, phytotoxicity on sugar cane and the herbicidal activity against Amaranthus retroflexus were determined.

Row | SMILES | Phytotoxicity on sugar cane ([1]; stem cutting 8 cm (one node)) | Phytotoxicity on sugar cane ([1]; stem cutting 25 cm (two nodes)) | Phytotoxicity on sugar cane ([2]; stem cutting 8 cm (one node)) | Phytotoxicity on sugar cane ([2]; stem cutting 15 cm (one node)) | Phytotoxicity on sugar cane ([2]; stem cutting 25 cm (two nodes)) | Herbicidal activity ([3]; stem cutting 8 cm) | Herbicidal activity ([3]; stem cutting 15 cm) | Herbicidal activity ([3]; stem cutting 25 cm) | Phytotoxicity on sugar cane ([4]; 50 g (active ingredient)/ha, stem cutting 3 cm (one node)) | Phytotoxicity on sugar cane ([4]; 50 g (active ingredient)/ha, stem cutting 15 cm (one node)) | Phytotoxicity on sugar cane ([4]; 50 g (active ingredient)/ha, stem cutting 25 cm (two nodes)) | Phytotoxicity on sugar cane ([4]; 125 g (active ingredient)/ha, stem cutting 3 cm (one node)) | Phytotoxicity on sugar cane ([4]; 125 g (active ingredient)/ha, stem cutting 15 cm (one node)) | Phytotoxicity on sugar cane ([4]; 125 g (active ingredient)/ha, stem cutting 25 cm (two nodes))
1 | CC(C)N(C)S(=O)(=O)NC(=O)c1cc(-n2c(=O)cc(C(F)(F)F)n(C)c2=O)c(F)cc1Cl [Saflufenacil, saflufenacil] | 0 | 15 |  |  |  |  |  |  |  |  |  |  |  | 
2 | C#CCN1C(=O)COc2cc(F)c(N3C(=O)C4=C(CCCC4)C3=O)cc21 [Flumioxazin, flumioxazin] |  |  | 10 | 10 | 30 | 100 | 100 | 100 | 0 | 5 | 20 | 0 | 5 | 20
